Measured values taken from US4443436A, “C-20-Modified macrolide derivatives of the macrolide antibiotics tylosin, desmycosin, macrocin, and lactenocin” (Eli Lilly and Company, priority 1982, dated 1984).
≈ marks a conversion by molar mass, not a printed value. Read-outs that look alike come from different tables or passages of the source.

Experiments:
Mycoplasma synoviae = test: MIC, broth-dilution microtiter test, Mycoplasma synoviae; type: cell-based
Source text: (§1) The MIC's in Table X were obtained using conventional broth-dilution microtiter tests.

[1] = tested on: Staphylococcus epidermidis EPI1; test: MIC, standard agar-dilution assay, Staphylococcus epidermidis EPI1; type: cell-based
Mycoplasma hyorhinis = test: MIC, broth-dilution microtiter test, Mycoplasma hyorhinis; type: cell-based
Source text: as §1

Mycoplasma gallisepticum = test: MIC, broth-dilution microtiter test, Mycoplasma gallisepticum; type: cell-based
Source text: as §1

[2] = tested on: Staphylococcus epidermidis EPI2; test: MIC, standard agar-dilution assay, Staphylococcus epidermidis EPI2; type: cell-based
Staphylococcus aureus = test: MIC, broth-dilution microtiter test, Staphylococcus aureus; type: cell-based
Source text: as §1

[3] = tested on: Staphylococcus aureus X400; test: MIC, standard agar-dilution assay, Staphylococcus aureus X400; type: cell-based
Streptococcus bovis 80 = test: MIC, broth-dilution microtiter test, Streptococcus bovis 80; type: cell-based
Source text: as §1

[4] = tested on: Streptococcus pyogenes C203; test: In vivo protection of mice experimentally infected with S. pyogenes C203; settings: Streptococcus pyogenes
Method: The C-20 modified derivatives of this invention have shown in vivo antimicrobial activity against experimentally-induced infections in laboratory animals. When two doses of test compound were administered to mice experimentally infected with S. pyogenes C203, the activity observed was measured as an ED50 value [effective dose in mg/kg to protect 50% of the test animals: see Warren Wick, et al., J. Bacteriol. 81, 233-235 (1961)].

[5] = tested on: Streptococcus pyogenes C203; test: MIC, standard agar-dilution assay, Streptococcus pyogenes C203; type: cell-based
Pasteurella multocida = test: Subcutaneous treatment of Pasteurella multocida-infected chicks; type: in vivo, one-day-old chicks; settings: 30 mg/kg × 2, 1 and 4 hours post-challenge
Method: Many of the C-20 modified derivatives of this invention have also shown in vivo antibacterial activity against infections induced by gram-negative bacteria. Tables XII and XIII summarize the results of tests in which illustrative compounds were evaluated against Pasteurella infection in one-day-old chicks. The compounds were administered parenterally or orally after challenge of the chicks with Pasteurella multocida (0.1 ml of a 10^-4 dilution of a twenty-hour tryptose broth culture of an avian P. multocida given subcutaneously). In these tests, unless indicated otherwise, all non-medicated infected chicks died within 24 hours of Pasteurella challenge. In the tests summarized in Table XII the compounds were administered by subcutaneous injection at a dosage of 30 mg/kg, 1 and 4 hours post-challenge of the chicks with P. multocida. In the test summarized in Table XIII the compounds were administered by gavage at 1 and 5 hours post-challenge of the chicks with P. multocida.

[6] = tested on: Staphylococcus aureus V41; test: MIC, standard agar-dilution assay, Staphylococcus aureus V41; type: cell-based
[7] = tested on: Pasteurella hemolytica 22C; test: MIC, broth-dilution microtiter test, Pasteurella hemolytica 22C; type: cell-based; settings: Pasteurella hemolytica 22C, broth-dilution microtiter
Source text: as §1

[8] = tested on: Pasteurella multocida 60A; test: MIC, broth-dilution microtiter test, Pasteurella multocida 60A; type: cell-based; settings: Pasteurella multocida 60A, avian isolate, broth-dilution microtiter
Source text: as §1

Mycoplasma hyopneumoniae = test: MIC, broth-dilution microtiter test, Mycoplasma hyopneumoniae; type: cell-based
Source text: as §1

[9] = tested on: Staphylococcus aureus X1.1; test: MIC, standard agar-dilution assay, Staphylococcus aureus X1.1; type: cell-based
[10] = tested on: Streptococcus pneumoniae Park I; test: microbe, parasite or virus in culture; type: cell-based; settings: Streptococcus pneumoniae Park I, agar dilution
[11] = tested on: Staphylococcus aureus S13E; test: MIC, standard agar-dilution assay, Staphylococcus aureus S13E; type: cell-based
Streptococcus Group 9960 = test: MIC, standard agar-dilution assay, Streptococcus Group 9960; type: cell-based
[12] = tested on: Pasteurella multocida 17E; test: MIC, broth-dilution microtiter test, Pasteurella multocida 17E; type: cell-based; settings: Pasteurella multocida 17E, bovine isolate, broth-dilution microtiter
Source text: as §1

[13] = tested on: Streptococcus Group D X66; test: MIC, standard agar-dilution assay, Streptococcus Group D X66; type: cell-based; settings: Streptococcus Group D X66, agar dilution
[14] = tested on: Haemophilus influenzae Holt; test: MIC, standard agar-dilution assay, Haemophilus influenzae Holt; type: cell-based; settings: Haemophilus influenzae Holt, ampicillin-sensitive strain
[15] = tested on: Haemophilus influenzae R252; test: MIC, standard agar-dilution assay, Haemophilus influenzae R252; type: cell-based; settings: Haemophilus influenzae R252, ampicillin-resistant strain
[16] = Staphylococcus epidermidis, EPI2
[17] = C203, sc, mice, subcutaneous, doses given 1 and 4 hours post-infection, read-out: ED50, Subcutaneous

How did the MIC (Mycoplasma synoviae; Mycoplasmopsis synoviae) turn out when `CCC1OC(=O)CC(O)C(C)C(OC2OC(C)C(O)C(N(C)C)C2O)C(CCOC)CC(C)C(=O)C=CC(C)=CC1COC1OC(C)C(O)C(OC)C1OC` (stereo not drawn) [Compound 30, 20-DH-20-O-Methyldesmycosin] was run?
The MIC was 0.39 µg/mL (≈ 0.495 µM).

And the MIC ([1]; Staphylococcus epidermidis, EPI1)?
The MIC was 0.5 µg/mL (≈ 0.635 µM).

And the MIC (Mycoplasma hyorhinis; Mycoplasma)?
The MIC was 50 µg/mL (≈ 63.5 µM).

What about the MIC (Mycoplasma gallisepticum; Mycoplasmoides gallisepticum) of the same molecule?
Its MIC is 0.39 µg/mL (≈ 0.495 µM).

What about the MIC [2, 16] of the same molecule?
The MIC was 0.5 µg/mL (≈ 0.635 µM).

And the MIC (Staphylococcus aureus)?
Its MIC is 0.78 µg/mL (≈ 0.99 µM).

And the MIC ([3]; Staphylococcus aureus X400, methicillin-resistant strain, agar dilution, read-out: MIC)?
The MIC was 1 µg/mL (≈ 1.27 µM).

What about the MIC (Streptococcus bovis 80; Streptococcus equinus, 80) of the same molecule?
The MIC was 12.5 µg/mL (≈ 15.9 µM).

And the ED50 [4, 17]?
Its ED50 is over 6.3 mg/kg.

What about the ED50 ([4]; C203, mice, oral, doses given 1 and 4 hours post-infection, read-out: ED50, Oral) of the same molecule?
The ED50 was 25 mg/kg.

And the MIC ([5]; Streptococcus pyogenes, C203)?
Its MIC is 0.5 µg/mL (≈ 0.635 µM).

What about the “Number of Deaths/Number Treated” value (Pasteurella multocida) of the same molecule?
Its value is 10/10.

What about the MIC ([6]; Staphylococcus aureus, V41) of the same molecule?
Its MIC is 0.5 µg/mL (≈ 0.635 µM).

And the MIC ([7]; read-out: MIC)?
Its MIC is 25 µg/mL (≈ 31.7 µM).

What about the MIC ([8]; read-out: MIC) of the same molecule?
The MIC was 25 µg/mL (≈ 31.7 µM).

And the MIC (Mycoplasma hyopneumoniae; Mesomycoplasma hyopneumoniae)?
The MIC was 12.5 µg/mL (≈ 15.9 µM).

And the MIC ([9]; Staphylococcus aureus, X1.1)?
The MIC was 0.5 µg/mL (≈ 0.635 µM).

What about the MIC ([10]; read-out: MIC) of the same molecule?
The MIC was 4 µg/mL (≈ 5.08 µM).

And the MIC ([11]; Staphylococcus aureus, S13E)?
Its MIC is 0.5 µg/mL (≈ 0.635 µM).

What about the MIC (Streptococcus Group 9960; GROUP9960, Streptococcus Group 9960, agar dilution, read-out: MIC) of the same molecule?
The MIC was 16 µg/mL (≈ 20.3 µM).

What about the MIC ([12]; read-out: MIC) of the same molecule?
The MIC was 25 µg/mL (≈ 31.7 µM).

What about the MIC ([13]; read-out: MIC) of the same molecule?
The MIC was 16 µg/mL (≈ 20.3 µM).

Which results are given for `CCC1OC(=O)CC(O)C(C)C(OC2OC(C)C(O)C(N(C)C)C2O)C(CCOc2cccnc2)CC(C)C(=O)C=CC(C)=CC1COC1OC(C)C(O)C(OC)C1OC` (stereo not drawn) [Compound 49, 20-DH-20-O-(Pyridin-3-yl)desmycosin]?
MIC (Mycoplasma synoviae; Mycoplasma synoviae, broth-dilution microtiter): 3.12 µg/mL (≈ 3.67 µM); MIC ([1]; Staphylococcus epidermidis EPI1, agar dilution): 0.5 µg/mL (≈ 0.588 µM); MIC ([14]; agar dilution): 16 µg/mL (≈ 18.8 µM); MIC (Mycoplasma hyorhinis; Mycoplasma hyorhinis, broth-dilution microtiter): 50 µg/mL (≈ 58.8 µM); MIC (Mycoplasma gallisepticum; Mycoplasma gallisepticum, broth-dilution microtiter): 0.78 µg/mL (≈ 0.917 µM); MIC ([2]; Staphylococcus epidermidis EPI2, agar dilution): 0.25 µg/mL (≈ 0.294 µM); MIC (Staphylococcus aureus; broth-dilution microtiter): 1.56 µg/mL (≈ 1.83 µM); MIC ([3]; Staphylococcus aureus X400, methicillin-resistant strain, agar dilution): 0.5 µg/mL (≈ 0.588 µM); MIC (Streptococcus bovis 80; Streptococcus bovis 80, broth-dilution microtiter): 25 µg/mL (≈ 29.4 µM); MIC ([5]; Streptococcus pyogenes C203, agar dilution): 2 µg/mL (≈ 2.35 µM); Number of Deaths/Number Treated (Pasteurella multocida): 9/10; MIC ([6]; Staphylococcus aureus V41, penicillin-resistant strain, agar dilution): 0.5 µg/mL (≈ 0.588 µM); MIC [7]: 25 µg/mL (≈ 29.4 µM); MIC [8]: 25 µg/mL (≈ 29.4 µM); MIC (Mycoplasma hyopneumoniae; Mycoplasma hyopneumoniae, broth-dilution microtiter): 25 µg/mL (≈ 29.4 µM); MIC ([9]; Staphylococcus aureus X1.1, agar dilution): 0.5 µg/mL (≈ 0.588 µM); MIC [10]: 2 µg/mL (≈ 2.35 µM); MIC ([11]; Staphylococcus aureus S13E, agar dilution): 0.5 µg/mL (≈ 0.588 µM); MIC (Streptococcus Group 9960; Streptococcus Group 9960, agar dilution): 16 µg/mL (≈ 18.8 µM); MIC [12]: 25 µg/mL (≈ 29.4 µM); MIC ([15]; agar dilution): 16 µg/mL (≈ 18.8 µM); MIC [13]: 16 µg/mL (≈ 18.8 µM)

What does the source list for `CCC1OC(=O)CC(O)C(C)C(OC2OC(C)C(O)C(N(C)C)C2O)C(CCOC(=O)c2nn(CC)c3cc4c(cc3c2=O)OCO4)CC(C)C(=O)C=CC(C)=CC1COC1OC(C)C(O)C(OC)C1OC` (stereo not drawn) [Compound 27, 20-DH-20-O-Cinoxacinyldesmycosin]?
MIC ([1]; Staphylococcus epidermidis EPI1, agar dilution, read-out: MIC): 1 µg/mL (≈ 0.982 µM); MIC ([14]; read-out: MIC): 32 µg/mL (≈ 31.4 µM); MIC (Mycoplasma hyorhinis; Mycoplasma hyorhinis, broth-dilution microtiter, read-out: MIC): 6.25 µg/mL (≈ 6.14 µM); MIC (Mycoplasma gallisepticum; Mycoplasmoides gallisepticum): 1.56 µg/mL (≈ 1.53 µM); MIC [2, 16]: 4 µg/mL (≈ 3.93 µM); MIC (Staphylococcus aureus; broth-dilution microtiter, read-out: MIC): 3.12 µg/mL (≈ 3.06 µM); MIC ([3]; Staphylococcus aureus, X400): 8 µg/mL (≈ 7.86 µM); MIC (Streptococcus bovis 80; Streptococcus equinus, Streptococcus bovis 80, broth-dilution microtiter, read-out: MIC): 0.78 µg/mL (≈ 0.766 µM); ED50 ([4]; C203, po, read-out: ED50, Oral): > 100 mg/kg; ED50 [4, 17]: < 1.5 mg/kg; MIC ([5]; Streptococcus pyogenes C203, agar dilution, read-out: MIC): 0.12 µg/mL (≈ 0.118 µM); Number of Deaths/Number Treated (Pasteurella multocida): 6/10; MIC ([6]; Staphylococcus aureus, V41): 4 µg/mL (≈ 3.93 µM); MIC ([7]; read-out: MIC): 50 µg/mL (≈ 49.1 µM); MIC ([8]; read-out: MIC): 25 µg/mL (≈ 24.6 µM); MIC ([9]; Staphylococcus aureus X1.1, agar dilution, read-out: MIC): 2 µg/mL (≈ 1.96 µM); MIC ([10]; read-out: MIC): 0.12 µg/mL (≈ 0.118 µM); MIC ([11]; Staphylococcus aureus, S13E): 4 µg/mL (≈ 3.93 µM); MIC (Streptococcus Group 9960; GROUP9960): 8 µg/mL (≈ 7.86 µM); MIC ([12]; read-out: MIC): 25 µg/mL (≈ 24.6 µM); MIC ([15]; read-out: MIC): 32 µg/mL (≈ 31.4 µM); MIC ([13]; read-out: MIC): 4 µg/mL (≈ 3.93 µM)
